Measured values as given in patent US8357786B2, “Method for preparing Gynostemma pentaphyllum extract with increasing damulin A and damulin B contents, and pharmaceutical compositions of the same for treating metabolic disease” (TG Biotech Co., Ltd., priority 2009, dated 2013).

Experiments:
Assay type in all cases: cell-based
AMPK = assay: Phosphorylation of AMPK (Thr-172 of α subunit) in L6 myotube cells, western blot; conditions: 2 hours, damulin A 10, 30, 60 μg/ml, damulin B 1, 5, 10 μg/ml, compared to control group
From the text: The activity of AMPK may be determined by determining whether or not the phosphorylation of a threonine amino acid residue at position 172 was increased.

[1] = system: ACC (acetyl-CoA carboxylase); assay: Phosphorylation of ACC (Ser-79) in L6 myotube cells, western blot; conditions: 2 hours, damulin A 10, 30, 60 μg/ml, damulin B 1, 5, 10 μg/ml, compared to control group
From the text: ACC is an important enzyme for regulating lipid metabolism in liver and muscle tissues. This enzyme carboxylates acetyl-CoA to produce malonyl-CoA. Malonyl-CoA is the most important factor for regulating β-oxidation of fatty acid within mitochondria. When the concentration of malonyl-CoA increases, the activity of CPT-1 (carnitine palmitoyl-CoA transferase) in mitochondrial membrane is reduced, thereby inhibiting β-oxidation of fatty acid, and on the other hand, when the concentration of malonyl-CoA decreases, β-oxidation is increased, accelerating the reduction of body fat. ACC is a subordinate target protein in AMPK activity, and is phosphorylated by the activation of AMPK. […]
Accordingly, differentiated L6 myotube cells were treated with individually separated damulin A with different concentrations (10, 30, and 60 μg/ml), and treated with individually separated damulin B with different concentrations (1, 5, and 10 μg/ml), for 2 hours. The increased extent of the phosphorylation of a threonine residue at (Thr)-172 of AMPK α subunit, and a serine residue at Ser-79 of an ACC enzyme protein was analyzed through western blot analysis according to the method of Hwang, et al. (Biochem. Biophys. Res. Commun. 371, 289-293, 2008). […] Also, both damulin A and damulin B were determined to be active ingredients which phosphorylate and activate AMPK, and phosphorylate and inactivate ACC. […]

L6 myotube cells [2] = assay: β-oxidation of fatty acid in L6 myotube cells
Method: When AMPK is activated, the activity of ACC is reduced, thereby reducing the concentration of malonyl-CoA within mitochondria. This accelerates the transport of fatty acid into mitochondria, and thereby increases β-oxidation. Thus, due to the reduction of body fat, an obesity inhibiting effect can be achieved. Cultured L6 myotube cells were treated with purely separated damulin A and damulin B, and the improving effect on β-oxidation of fatty acid was analyzed by the method of Hwang, et al. (Biochem. Biophys. Res. Commun. 377, 1253-1258).
As a result, it was observed that damulin A (30 μg/ml) and damulin B (5 μg/ml) increased β-oxidation of fatty acid 1.8 times and 2.6 times (see FIG. 5).

L6 myotube cells [3] = assay: 2-DG (glucose) absorption into L6 myotube cells
From the text: It is well known that the activation of AMPK also increases the glucose absorption into cells, and thus causes a blood glucose level reducing effect (Hardie, et al., FEBS Lett. 546, 113-120, 2003; Carling, et al., Trends. Biochem. Sci. 29, 18-24, 2004; Kahn, et al., Cell Metab. 1, 15-25, 2005; Cool, et al., Cell Metab. 3. 403-416, 2006; Lee et al., Diabetes, 55, 2256-2264, 2006; Hwang et al., Biochem. Biophys. Res. Commun. 371, 289-293, 2008). Accordingly, the treatment of damulin A and damulin B on L6 myotube cells was carried out to determine the influence on the glucose absorption into cells.
To cultured L6 myotube cells, high concentration glucose was added together with 2-DG (2-deoxy-[3H]D-glucose) (a radioactive isotope that is not decomposed within a cell) according to the method of Hwang et al. (Biochem. Biophys. Res. Commun. 377, 1253-1258), and then the accelerated extent of 2-DG absorption into cells by damulin A (30 μg/ml) and damulin B (5 μg/ml) was analyzed. As a result, in the damulin A-treated cells, the capability of absorbing glucose was increased by 42% on the average, and in the damulin B-treated cells, the capability was increased by about 79% (see FIG. 6). Therefore, based on the result, both damulin A and damulin B are determined to have a high anti-diabetes effect by decreasing blood glucose level.

SMILES	phosphorylation of threonine residue (Thr)-172 of AMPK α subunit (AMPK)	phosphorylation of serine residue Ser-79 of ACC [1]	increase of β-oxidation of fatty acid (L6 myotube cells [2]; 30 μg/ml) [times]	increase of capability of absorbing glucose (2-DG absorption into cells) (L6 myotube cells [3]; 30 μg/ml) [%]	increase of β-oxidation of fatty acid (L6 myotube cells [2]; 5 μg/ml) [times]	increase of capability of absorbing glucose (2-DG absorption into cells) (L6 myotube cells [3]; 5 μg/ml)
CC(C)=CC/C=C(/C)[C@H]1CC[C@]2(C)C1[C@H](O)CC1[C@@]3(C)C[C@@H](O)[C@H](OC4OC(CO)[C@@H](O)[C@H](O)[C@@H]4OC4OC(CO)[C@@H](O)[C@H](O)[C@@H]4O)C(C)(C)C3CC[C@]12C (stereo partly drawn) [damulin A, 2α,3β,12β-trihydroxydammar-20(22)-E,24-diene-3-O-[β-D-glucopyranosyl-(1→)-β-D-glucopyranoside]]	concentration-dependently increased the phosphorylation	concentration-dependently increased the phosphorylation	1.8	42		
C=C(CCC=C(C)C)[C@H]1CC[C@]2(C)C1[C@H](O)CC1[C@@]3(C)C[C@@H](O)[C@H](OC4OC(CO)[C@@H](O)[C@H](O)[C@@H]4OC4OC(CO)[C@@H](O)[C@H](O)[C@@H]4O)C(C)(C)C3CC[C@]12C (stereo partly drawn) [damulin B, 2α,3β,12β-trihydroxydammara-20,24-diene-3-O-[β-D-glucopyranosyl-(1→)-β-D-glucopyranoside]]	concentration-dependently increased the phosphorylation	concentration-dependently increased the phosphorylation			2.6	about 79%
